{"source": "patent US20250222028A1", "about": "“ENGINEERED IMMUNE CELL PLATFORM” (Cancer Research Technology Limited, priority 2022, published 2025)", "key": {"EL-4 tumour cells": {"system": "EL-4 tumour cells", "assay": "LDH cytotoxicity assay, OT-I CD8+ CTLs co-cultured with Ova peptide-pulsed EL-4 target cells", "format": "cell-based, murine", "details": "10 μM, over a range of effector-to-target ratios, vs carrier control", "procedure": "FIG. 1. L-type Cav channel agonists increase Gli1 expression and enhance specific cell killing by murine CD8+ CTLs. CD8^+ T cells were isolated from the spleen and inguinal lymph nodes of Rag2^−/− OT-I mice, and CTLs were generated. (A) Cells were restimulated on day 9/10 for 3 hours using plate-bound anti-CD3ε in the presence of indicated concentrations of FPL 64176 or carrier control. RNA was extracted and Gli1 expression was assessed by qRT-PCR. Data is n=3 independent experiments. us=unstimulated cells. (B) An LDH cytotoxicity assay was performed using OT-I CTLs. On day 7, CTLs were co-cultured with Ova peptide-pulsed EL-4 cells in the presence of 10 μM FPL 64176 (squares) or carrier control (circles). Data is n=4 independent experiments. (C) Updated experiment of (A). Data is now n=4 independent experiments. Data is normalised to Tbp as a reference gene. 0h=unstimulated cells. (D) Same data as (B) represented differently. […] Error bars indicate SD. p values were calculated using an unpaired two-tailed Student's t test (C) or a two-way ANOVA (B/D). * indicates p<0.05, ** indicates p<0.01, **** indicates p<0.0001.\nFIG. 11. […] (A) Quantitative analysis of live cell numbers. […] (E) Quantitative analysis of live cell numbers. […]\nTo ensure that the use of L-type Cav agonist is not adversely affecting immune cells, general cell functions were assessed. […]"}, "K562 target cells": {"system": "K562 target cells", "assay": "LDH killing assay, NK-92 cells with K562 target cells", "format": "cell-based, human", "details": "10 μM, vs carrier control", "procedure": "FIG. 5. L-type Cav channel agonists increase GLI1 expression in the human NK cell line NK-92 and promote specific tumour cell killing. (A) NK-92 cells were stimulated using an anti-NKp46 mAb for 4 hours in the presence of 10 μM FPL 64176, and GLI1 expression was assessed using qRT-PCR. Data is n=4 independent experiments. (B) NK-92 cells were stimulated using an anti-NKp46 mAb for 4 hours in the presence of 100 μM Bay K8644, and GLI1 expression was assessed using qRT-PCR. Data is n=3 independent experiments. […]\nFIG. 7. […] Killing of K562 tumour cells was assessed after 24 h by LDH killing assay. […]\nIn order to establish whether an increase in GLI1 expression is correlated with an increase in NK-92 cell effector function, NK-92 were co-cultured with K562 myelogenous leukaemia cells in the presence of 10 μM FPL 64176 or carrier control, at the effector:target ratios indicated in FIG. 5C. Cell killing was assessed using the LDH assay, as previously described.\nTo determine if the increased specific cell killing seen in Gorlin patients can be achieved by engineering cells to express a gain-of-function mutation resulting in increased Gli1 signalling, NK-92 cells were engineered to stably express the I756T GOF mutation in Cav1.4. […] Killing of K562 tumour cells was assessed after 24 h by LDH killing assay. […]"}}, "data": [{"smiles": "COC(=O)c1c(C)[nH]c(C)c1C(=O)c1ccccc1Cc1ccccc1", "note": "[FPL 64176]", "values": [{"measurement": "improvement of specific cell killing of EL-4 tumour cells", "setting": "EL-4 tumour cells", "value": "at least 100%"}, {"measurement": "target cell killing by NK-92 cells", "setting": "K562 target cells", "value": "enhanced"}]}]}
